Experimental data taken from patent US10905672B2, “Combination of baclofen, acamprosate and medium chain triglycerides for the treatment of neurological disorders” (PHARNEXT, priority 2014, dated 2021).
“Also recorded” adds a separate entry of the source.

Assays:
[1] = tested on: Abeta 25-35 intoxicated mice; assay: Spontaneous alternation performance, Y-maze test (spatial working memory) after icv Abeta 25-35; assay type: in vivo, Swiss mice; details: tested day 7
Method: (§1) Male Swiss mice are used throughout the study. Animals are housed in plastic cages, with free access to laboratory chow and water, except during behavioral experiments, and kept in a regulated environment, under a 12 h light/dark cycle (light on at 8:00 a.m.). Experiments are carried out in a soundproof and air-regulated experimental room to which mice have been habituated at least 30 min before each experiment.
(§2) Drug(s) is/are administered daily by gavage (per os). The Abeta 25-35 peptide and scrambled Abeta 25-35 peptide (control) have been dissolved in sterile bidistilled water, and stored at −20° C. until use. The Abeta peptides are then administered intracerebroventricularly (icy). In brief, each mouse is anesthetized lightly with ether, and a gauge stainless-steel needle is inserted unilaterally 1 mm to the right of the midline point equidistant from each eye, at an equal distance between the eyes and the ears and perpendicular to the plane of the skull. Peptides or vehicle are delivered gradually within approximately 3 s. […] The administration site is checked by injecting Indian ink in preliminary experiments. Neither insertion of the needle nor injection of the vehicle has a significant influence on survival, behavioral responses or cognitive functions.
On day −1, i.e., 24 h before the Abeta 25-35 peptide injection, drugs, candidate combinations, baclofen acamprosate mix, or the vehicle solution are administered per os by gavage twice daily (at 8:00 a.m. and 6:00 p.m.), and caprylic triglyceride is administered per os by gavage once daily (at 8:00 a.m.).
On day 0 (at 10:00 a.m.), mice are injected icy with Abeta 25-35 peptide or scrambled Abeta 25-35 peptide (control) in a final volume of 3 μL (3 mM).
Between day 0 and day 7, drugs, drug combinations or the vehicle solution are administered per os by gavage once or twice daily (at 8:00 a.m. for caprylic triglyceride or at 8:00 a.m. and 6:00 p.m. for baclofen and acamprosate). As a positive control, one animal group receives donepezil (reference compound—1 mg/kg/day) per os by gavage in a single injection (at 8:00 a.m.). Drugs are solubilized in water and freshly prepared just before each gavage administration.
On day 7, all animals are tested for spontaneous alternation performance in the Y-maze test, an index of spatial working memory (short-term memory).
On day 7, all animals are tested for spontaneous alternation performance in the Y-maze, an index of spatial working memory. The Y-maze is made of grey polyvinylchloride. Each arm is 40 cm long, 13 cm high, 3 cm wide at the bottom, 10 cm wide at the top, and converges at an equal angle. Each mouse is placed at the end of one arm and allowed to move freely through the maze during an 8 min session. The series of arm entries, including possible returns into the same arm, are checked visually. An alternation is defined as entries into all three arms on consecutive occasions. The number of maximum alternations is therefore the total number of arm entries minus two and the percentage of alternation is calculated as (actual alternations/maximum alternations)×100. Parameters include the percentage of alternation (memory index) and total number of arm entries (exploration index). Animals that show an extreme behavior (alternation percentage <25% or >85% or number of arm entries <10) are discarded. Usually, this accounts for 0-5% of the animals. […]

[2] = tested on: Abeta 25-35 intoxicated mice; assay: Step-through passive avoidance test (contextual long-term memory) after icv Abeta 25-35; assay type: in vivo, Swiss mice
Method: as §1
as §2, with “functions. […]” for “functions.”
On days 8 and 9, the contextual long-term memory of the animals is assessed using the step-through type passive avoidance procedure.
The apparatus is a two-compartment (15×20×15 cm high) box with one compartment being illuminated with white polyvinylchloride walls and the other compartment darkened with black polyvinylchloride walls and a grid floor. […] The step-through latency, that is, the latency spent to enter the darkened compartment, and the number of vocalizations is recorded. […] After 5 s the door is raised, and the step-through latency and the escape latency, i.e., the time spent to return into the white compartment, are recorded up to 300 s.

SMILES: NCC(CC(=O)O)c1ccc(Cl)cc1 (centres unmarked) [Baclofen, baclofen]
- effect on working memory (percentage of alternation) compared to Abeta 25-35 intoxicated animals ([1]; baclofen alone, 480 μg/kg/bid per os, FIG. 1-B): does not improve working memory
- effect on working memory (percentage of alternation) compared to Abeta 25-35 intoxicated animals ([1]; baclofen alone, 480 μg/kg/bid per os, FIG. 1-B, listed as baclofen): No significant effect
- effect on memory defects (step-through latency) compared to Abeta 25-35 intoxicated animals ([2]; baclofen monotherapy, 480 μg/kg/bid per os, FIG. 2-B): does not provide any improvement

SMILES: CC(=O)NCCCS(=O)(=O)O [acamprosate]
- effect on working memory (percentage of alternation) compared to Abeta 25-35 intoxicated animals ([1]; acamprosate alone, 32 μg/kg/bid per os, FIG. 1-B): No significant effect; also recorded: does not improve working memory
- effect on memory defects (step-through latency) compared to Abeta 25-35 intoxicated animals ([2]; acamprosate monotherapy, 32 μg/kg/bid per os, FIG. 2-B): does not provide any improvement

SMILES: CCCCCCCC(=O)OCC(COC(=O)CCCCCCC)OC(=O)CCCCCCC [C8 MCT, caprylic triglyceride]
- effect on working memory (percentage of alternation) compared to Abeta 25-35 intoxicated animals ([1]; caprylic triglyceride alone, 0.555, 1.66 and 5 g/kg/d per os once daily, FIG. 1-A): does not improve working memory
- effect on working memory (percentage of alternation) compared to Abeta 25-35 intoxicated animals ([1]; caprylic triglyceride alone, 0.555, 1.66 and 5 g/kg/d per os once daily, FIG. 1-A, listed as caprylic triglyceride): No significant effect
- effect on memory defects (step-through latency) compared to Abeta 25-35 intoxicated animals ([2]; C8 MCT alone, 0.555, 1.66 and 5 g/kg/d per os, FIG. 2-A): does not provide any statistically significant effect
